Results reported in US12441693B2, “Targeting STAT sumoylation to enhance immune responses” (THE GEORGE WASHINGTON UNIVERSITY, priority 2018, dated 2025).

Assays:
[1] = system: primary human CD4 T cells; assay: Viability of primary CD4 T cells in the screening; assay type: cell-based; settings: at the concentration tested
Procedure: It was observed that the ability of different benzotriazole and benzotriazin derivatives to increase STAT5 phosphorylation correlated with the ability of the compounds to induce the expression of CD69 (a STAT5 target gene) (FIG. 2A) but not CD25 (FIG. 2B) in the surface of human CD4 T cells. Based on these findings, a primary cell screening assay was set up according to FIG. 2C to identify derivatives with similar activity. As an example, flow cytometry was performed to isolated activated cells (FIG. 2D), which were expanded in the presence of DMSO or a compound of interest (FIG. 2E), and screened for changes in the expression of CD69 (FIG. 2F).

NK cells = settings: single agent, 48 hours
Procedure: To determine if STAT SUMOylation increases Gzm B expression in NK cells, isolated human NK cells were analyzed after a 3-day incubation with either IL-2, IL-15, HODHBt, IL-2+IL-15, HODHBt+IL-2, HODHBt+IL-15, or HODHBt+IL-2+IL-15.
To further characterize the effects of STAT SUMOylation inhibition in NK cell function, primary human NK cells were isolated and cultured with IL-15 in the presence or absence of HODHBt. 48 hours later, cells were phenotyped by flow cytometry.
To characterize the induction of other proteins known to be important for the cytolytic activity of NK cells, primary human NK cells were isolated from 6 male and 6 female donors and cultured with IL-15 in the presence or absence of HODHBt. 48 hours later, levels of Granzyme A (FIG. 18A), Perforin (FIG. 18B), Granulysin (FIG. 18C), TRAIL (FIG. 18D) and Fas ligand (FASL) (FIG. 18E) were analyzed by flow cytometry.
Antibody-dependent cell-mediated cytotoxicity (ADCC) is mediated by the recognition of an antibody bound to a cell through an Fc receptor present in NK cells, mostly CD16 (FCGR3A). To address whether inhibiting STAT SUMOylation alters CD16 expression in the surface of NK cells, freshly isolated NK cells were treated with either IL-15, HODHBt or a combination of both for 48 hours and surface expression of CD16 was measured by flow cytometry.
Since IL-15 activated STATs, it was hypothesized that STATs, and in particular STAT1, was controlling expression of CXCR5 (C—X—C Motif Chemokine Receptor 5) and that inhibiting STAT SUMOylation enhances CXCR5 expression and promotes migration towards a CXCL13 (C—X—C Motif Chemokine Ligand 13) gradient. CXCL13 controls homing of lymphocytes to follicles in lymph nodes; however whether this mechanism of regulation exists in human NK cells and whether IL-15 controls expression were unknown. To address which one of the two scenarios was potentially playing a role in the presence of NK cells within the follicles, human NK cells were treated with IL-15, HODHBt or a combination of both for 48 hours. Surface expression of CXCR5 and viability were next measured by flow cytometry.
To phenotype the cells, 1×10^5 cells were stained with a viability dye (Fixable Viability Dye eFluor 450, Affymetrix, eBioscience, San Diego, CA) and the surface marker-specific mAb specific for human: PE-anti-CD25 (Caltag, Burlingame, CA) and PE-anti-CD69 (Caltag, Burlingame, CA) followed by flow cytometric analysis in a BD FACScanto II flow cytometer using the FACSDiva software (Becton Dickinson, Mountain View, CA) and analyzed using FlowJo (Tree Star Inc., Ashland, OR).

K562 = assay: NK cell killing of K562 cells, E:T 1:1, 4 hours; assay type: cell-based, human; settings: NK cells pretreated with single agent, E:T 1:1, 4 hours
Procedure: It was therefore hypothesized that inhibiting STAT SUMOylation may enhance the ability of IL-15 stimulated NK cells to clear the HIV latent reservoir. To test the hypothesis, NK cells were treated with DMSO, IL-15-stimulated, treated with HODHBt or IL-15-stimulated and treated with HODHBt. Cells were then tested in their ability to kill the erythroleukemia cell line K562, which lack MHC-I. In an experiment, the NK cells from two donors were co-cultured with K562 at an E:T ratio of 1:1 for 4 hours (FIG. 19A). NK cells were pretreated with IL-15, HODHBt, or a combination of both.

Row | Compound | toxicity / viability of primary CD4 T cells [1] | surface expression of CD69 on NK cells (NK cells) | surface expression of CXCR5 on NK cells (NK cells) | expression of Granzyme A, Perforin, Granulysin, TRAIL and FASL in NK cells (NK cells; 6 male and 6 female donors) | expression of GZMB in NK cells (NK cells; vs media control) | killing of K562 by pretreated NK cells (K562)
1 | CC(C)(C)OC(=O)NCc1ccc(C(=O)On2nnc3ccccc3c2=O)cc1 [BIN024] | high levels of toxicity | – | – | – | – | –
2 | IL-15: interleukin-15 (IL-15), cytokine | – | induced the surface expression of CD69 | induced surface expression of CXCR5 | induced the expression of all these genes | increased the expression of GZMB | induced increase killing of K562 over a 4-hour period
